Test results reported in patent US20100125103A1 (TG BIOTECH CO. LTD., priority 2008, published 2010).
Entries after “also recorded” stand apart in the source; their conditions may differ.

Tests used:
Solubility (Table 1) = format: physicochemical; conditions: for Solubility Insoluble: solvents in which the compound is insoluble; for Solubility Soluble: solvents in which the compound is soluble
Description: Each of the compounds prepared by Examples 1 to 7 were subjected to UV absorbance analysis, IR(infrared) absorbance analysis and high resolution mass spectrometry analysis so as to determine the molecular weight and formula of the purified compound. Specifically, UV absorbance analysis was carried out by UV-265 spectrophotometer (Shimadzu), IR absorbance analysis was carried out by FTS-80 spectrophotometer (Bio-Rad Digilab Division), and the molecular weight and formula were determined through High resolution MS analysis by using VG70-SEQ mass spectrometry. Also, a nuclear magnetic resonance device (Varian 300, 500 NMR) was used to obtain ^1H, ^13C-NMR spectrum, and the spectrum was synthetically analyzed to determine the structure.

diabetic db/db mice = experiment: Blood glucose level in db/db mice; format: in vivo; conditions: for reduced extent of blood glucose level compared to control / blood glucose level: 10 mg/kg oral
Description: In order to measure the blood glucose level in db/db mice through treatment of the compounds obtained from Examples, the effects of the compounds were measured by using a method described in the reference (Halseth A E et al, Biochem Biophys Res Commun. 294, […], 2002).
Meanwhile, to a control group, the same volume of saline solution orally administered for 4 weeks. Then, the change in blood glucose level of the mice was recorded.

Solubility Insoluble (Solubility (Table 1))	Solubility Soluble (Solubility (Table 1))	Molecule	other results
Water	Alcohol, and DMSO	C/C=C/c1ccc(Oc2cc(/C=C/C)cc(O)c2O)cc1 [Example 5, 3-(4-((E)-prop-1-enyl)phenoxy)-5-((E)-prop-1-enyl)benzene-1,2-diol]	
Water	Alcohol, and DMSO	C/C=C/c1ccc(Oc2cc(/C=C/C)cc(OC(C)=O)c2OC(C)=O)cc1 [Example 7, 1-(4-((E)-prop-1-enyl)phenoxy)-2,3-diacetyloxy-5-((E)-prop-1-enyl)benzene]	

The next lines start with the molecule.

Molecule	Solubility Insoluble (Solubility (Table 1))	Solubility Soluble (Solubility (Table 1))	other results
CCCc1ccc(Oc2cc(CCC)cc(O)c2O)cc1 [Example 2, 3-(4-propylphenoxy)-5-propylbenzene-1,2-diol]	Water	Alcohol, and DMSO	
CCCc1ccc(Oc2cc(CCC)cc(O)c2OC)cc1 [Example 3, 3-(4-propylphenoxy)-2-methoxy-5-propylphenol]	Hexane,; also recorded: Water	Alcohol, and DMSO	
CCCc1ccc(Oc2cc(CCC)cc(OC(C)=O)c2OC(C)=O)cc1 [Example 4, 1-(4-propylphenoxy)-2,3-diacetyloxy-5-propylbenzene]	Water	Alcohol, and DMSO	
obovatol [Example 1]			change in blood glucose level compared to the control group (diabetic db/db mice; 5 mg/kg oral, 4 weeks): did not show a significant change; reduced extent of blood glucose level compared to control (diabetic db/db mice; after 1 week): 39.6%; blood glucose level (diabetic db/db mice; after 1 week (control 390.25±44.1)): 235.75±20.9; reduced extent of blood glucose level compared to control (diabetic db/db mice; after 2 weeks): 29.2%; blood glucose level (diabetic db/db mice; after 2 weeks (control 419.75±28.8)): 297.25±29; reduced extent of blood glucose level compared to control (diabetic db/db mice; after 3 weeks): 52.7%; blood glucose level (diabetic db/db mice; after 3 weeks (control 495±86.2)): 234±61.5; reduced extent of blood glucose level compared to control (diabetic db/db mice; after 4 weeks): 55.2%; blood glucose level (diabetic db/db mice; after 4 weeks (control 522±78)): 288±27.6
